In general, IC50 refers to the concentration that inhibits the measured activity by half.

Experiment [1] addresses T1, p38a activated, mitogen-activated protein kinase-activated protein kinase 2 (MAPKAP-K2 or MK2) enzyme (Homo sapiens, UniProt P49137).
T1 construct: purchased Invitrogen PV3317
Put plainly: MK2 OMNIA biochemical assay (AssayQuant continuous-read kinase assay). The following applies: [MK-2]=0.05 nM, [ATP]=100 μM, [AQT0425]=10 μM. As to the method: The protocol below describes a continuous-read kinase assay optimized to measure potency of compounds against p38a activated, mitogen-activated protein kinase-activated protein kinase 2 (MAPKAP-K2 or MK2) enzyme.
A 1.25× stock solution of MK2 (PV3317, from Invitrogen) and a 5× stock solution of ATP and Sox conjugated peptide substrate, AQT0425 (CSKS-AQT0425B, from AssayQuant Technologies), were prepared in 1× kinase reaction buffer consisting of 50 mM HEPES, pH 7.5, 0.01% Brij-35, 0.55 mM EGTA, 10 mM MgCl2 and 1 mM DTT.
10 μL of the ATP and substrate solution mix was added to a Corning (3574) 384-well, white, non-binding surface microtiter plate containing […] of serially diluted test compounds prepared in DMSO. The reactions were started with the addition of 40 μL of the enzyme solution and monitored every 71 seconds for 240 min at λex 360/λem 485 in a Synergy H4 plate reader from BioTek at room temperature.
The initial linear portions of the net progress curves were fit according to a linear equation to yield the slope and percentage of inhibition (% inhibition) at each compound concentration. The net progress curves obtained during the entirety of reactions were also fit according to an ascending single-exponential equation (Eq. 1) to yield Vobs values at each compound concentration. Plots of % Inhibition versus degrader concentrations were fit according to a dose-response equation (Eq. 2) to generate IC50 and Hill slope values while plots of Vobs versus degrader concentration were fit according to Equation 3 (Eq. 3) to generate apparent Kinact values using the GraphPad PRISM software.
where F is the fluorescence intensity from the plate reader, V0 is a constant reflecting the relationship between the instrument readout and product concentration, t is time, e is Euler's number, and Vobs is the observed inactivation rate constant.
where % Inhibition is percentage of inhibition, IC50 is half maximal inhibitory concentration, [I] is the degraders concentration, and n is the Hill slope.
where kobs is the observed inactivation rate constant, Kinact is the apparent inactivation rate constant, KI is the apparent inhibition constant, and [I] is the degrader concentration.

The next experiment has as its target T2, MK2 (Homo sapiens, UniProt P49137).
T2 construct: expressed in transfected cells
Kind of experiment: MK2 degradation assay in MK2 overexpressed HiBiT-tagged cell line. The experiment is classed as cell-based. The note with it: cells stably expressing HiBiT-tagged MK2 (overexpressed), overnight incubation, read-out: HiBiT MK2 OE EC50. As for the experimental part:
A compound was dispensed into a white 384-well tissue-culture treated plate using an acoustic liquid handler. Dilutions were based on a 25 μL assay volume in duplicate 10 point 3-fold serial dilutions starting with a 10 μM dose. Negative control wells containing only 0.2% DMSO were also included to calculate 100% signal. All wells were backfilled to a final DMSO concentration of 0.2% to ensure DMSO uniformity across wells. Cells stably expressing HiBiT-tagged protein of interest were then washed, trypsinized, and counted.
These cells were then resuspended in fresh medium to give the proper concentration. This was done so that when cells were plated at a 25 μL seeding volume the assay would be conducted within the linear range from optimization of cell-based HiBiT assay. Following the above procedure, 25 μL of cells expressing HiBiT-tagged protein of interest were dispensed per well. Cells were then seeded into the 384-well plate that was pre-spotted with compounds. The resulting cells were incubated overnight at 37° C./5% CO2.
The 384-well plates were then removed from the incubator and left at room temperature for 30 min. The Nano-Glo HiBiT Lytic Detection Reagent was prepared according to manufacturer's instructions. 25 μL of Nano-Glo HiBiT Lytic Detection Reagent were added per well of a 384-well plate. The resulting plates were incubates for 30 min at room temperature. Luminescence signal was then read using a plate reader.
All luminescence values were normalized to the DMSO control wells. The average value of the DMSO control wells was set to equal 100% of the relative HiBiT-tagged target protein levels.
The luminescence values were plotted using a graphing software. Compound concentration was plotted on the x-axis and the corresponding relative protein of interest levels on the y-axis. Graphing software was used to determine the EC50 value (the half-maximum effective concentration) of a compound for the degradation of the HiBiT-tagged substrate. The software used a four-parameter logistic model (sigmoidal dose-response model) (FIT=(A+{(B−A)/1+[(C/x)^D]})) where C was the inflection point (EC50), D was the […], and A and B were the low and high limits of the fit, respectively) to calculate the EC50. The Ymin was calculated by determining the lowest percentage of target protein remaining following compound treatment.
Background: HiBiT is a short tag that completes a luciferase, so light tracks the accessible tagged protein.

T2 sequence (P49137 whole entry): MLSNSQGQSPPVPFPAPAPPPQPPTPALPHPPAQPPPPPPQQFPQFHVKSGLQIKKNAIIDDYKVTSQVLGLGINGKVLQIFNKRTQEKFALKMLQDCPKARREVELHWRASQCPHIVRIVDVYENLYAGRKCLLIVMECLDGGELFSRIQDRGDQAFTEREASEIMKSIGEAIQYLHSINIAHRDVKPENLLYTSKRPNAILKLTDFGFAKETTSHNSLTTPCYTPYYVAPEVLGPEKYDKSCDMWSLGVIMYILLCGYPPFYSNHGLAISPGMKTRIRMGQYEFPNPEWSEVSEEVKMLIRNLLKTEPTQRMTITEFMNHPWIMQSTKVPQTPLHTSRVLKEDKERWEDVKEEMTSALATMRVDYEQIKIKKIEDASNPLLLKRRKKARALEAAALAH
T1 sequence (P49137 whole entry): as above

On to `Cn1nc(C2CCC(=O)NC2=O)c2ccc(N3CCN(C[C@H]4CC[C@H](NC(=O)c5ccc(-c6cc(-c7cc8c([nH]7)CCNC8=O)ccn6)c(F)c5)CC4)CC3)cc21` (stereo partly drawn) [Example 1.5, N-[trans-4-[[4-[3-(2,6-dioxo-3-piperidyl)-1-methyl-indazol-6-yl]piperazin-1-yl]methyl]cyclohexyl]-3-fluoro-4-[4-(4-oxo-1,5,6,7-tetrahydropyrrolo[3,2-c]pyridin-2-yl)-2-pyridyl]benzamide], for which the concentration for half-maximal inhibition (IC50) in experiment [1] was below 0.15 µM. At MK2, the DC50 is below 0.01 µM.

As for `O=C1CCC(c2ccc(N3CCN(C[C@H]4CC[C@H](NC(=O)c5ccc(-c6cc(-c7cc8c([nH]7)CCNC8=O)ccn6)c(F)c5)CC4)CC3)cc2)C(=O)N1` (stereo partly drawn) [Example 1.6, N-(trans-4-((4-(4-(2,6-Dioxopiperidin-3-yl)phenyl)piperazin-1-yl)methyl)cyclohexyl)-3-fluoro-4-(4-(4-oxo-4,5,6,7-tetrahydro-1H-pyrrolo[3,2-c]pyridin-2-yl)pyridin-2-yl)benzamide], the half-inhibitory concentration (IC50) in experiment [1] was in the range of 0.151 to 0.5 µM. In addition, on MK2, the DC50 lay in the range of 0.01 to 0.1 µM.

Turning to `O=C1CCC(c2cccc(N3CCN(CC[C@H]4CC[C@H](NC(=O)c5ccc(-c6cc(-c7cc8c([nH]7)CCNC8=O)ccn6)c(F)c5)CC4)CC3)c2)C(=O)N1` (stereo partly drawn) [Example 1.9, N-(trans-4-(2-(4-(3-(2,6-Dioxopiperidin-3-yl)phenyl)piperazin-1-yl)ethyl)cyclohexyl)-3-fluoro-4-(4-(4-oxo-4,5,6,7-tetrahydro-1H-pyrrolo[3,2-c]pyridin-2-yl)pyridin-2-yl)benzamide], the IC50 in experiment [1] lay in the range of 0.151 to 0.5 µM. Moreover, the DC50 on MK2 is 0.101 to 0.5 µM.

For the molecule `O=C1CCC(c2cccc(N3CCN(C[C@H]4CC[C@H](NC(=O)c5ccc(-c6cc(-c7cc8c([nH]7)CCNC8=O)ccn6)c(F)c5)CC4)CC3)c2)C(=O)N1` (stereo partly drawn) [Example 1.7, N-(trans-4-((4-(3-(2,6-Dioxopiperidin-3-yl)phenyl)piperazin-1-yl)methyl)cyclohexyl)-3-fluoro-4-(4-(4-oxo-4,5,6,7-tetrahydro-1H-pyrrolo[3,2-c]pyridin-2-yl)pyridin-2-yl)benzamide], the 50% inhibitory concentration (IC50) in experiment [1] lay within 0.151 to 0.5 µM. Further, on MK2, the DC50 is 0.01 to 0.1 µM.

As for `Cn1nc(C2CCC(=O)NC2=O)c2cccc(N3CCN(CCN4CCN(c5ccc(-c6cc(-c7cc8c([nH]7)CCNC8=O)ccn6)c(F)c5)CC4)CC3)c21` (stereo not drawn) [Example 1.13, 3-(7-(4-(2-(4-(3-Fluoro-4-(4-(4-oxo-4,5,6,7-tetrahydro-1H-pyrrolo[3,2-c]pyridin-2-yl)pyridin-2-yl)phenyl)piperazin-1-yl)ethyl)piperazin-1-yl)-1-methyl-1H-indazol-3-yl)piperidine-2,6-dione], the half-inhibitory concentration (IC50) in experiment [1] was in the range of 0.501 to 1 µM. Besides, on MK2, the DC50 is below 0.01 µM.

As to `Cn1nc(C2CCC(=O)NC2=O)c2ccc(N3CCN(CC[C@H]4CC[C@H](NC(=O)c5ccc(-c6cc(-c7cc8c([nH]7)CCNC8=O)ccn6)c(F)c5)CC4)CC3)cc21` (stereo partly drawn) [Example 1.8, N-(trans-4-(2-(4-(3-(2,6-Dioxopiperidin-3-yl)-1-methyl-1H-indazol-6-yl)piperazin-1-yl)ethyl)cyclohexyl)-3-fluoro-4-(4-(4-oxo-4,5,6,7-tetrahydro-1H-pyrrolo[3,2-c]pyridin-2-yl)pyridin-2-yl)benzamide], the IC50 in experiment [1] was 0.501 to 1 µM. Moreover, the DC50 on MK2 was below 0.01 µM.

For `O=C1CCC(c2ccc(N3CCN(CCN4CCN(c5cccc(-c6cc(-c7cc8c([nH]7)CCNC8=O)ccn6)c5)CC4)CC3)cc2)C(=O)N1` (stereo not drawn) [Example 1.12, 3-(4-(4-(2-(4-(3-(4-(4-Oxo-4,5,6,7-tetrahydro-1H-pyrrolo[3,2-c]pyridin-2-yl)pyridin-2-yl)phenyl)piperazin-1-yl)ethyl)piperazin-1-yl)phenyl)piperidine-2,6-dione], the IC50 in experiment [1] lay in the range of 0.151 to 0.5 µM. The DC50 on MK2 was above 0.5 µM.

As for `Cn1nc(C2CCC(=O)NC2=O)c2ccc(N3CCN(CCN4CCN(c5cccc(-c6cc(-c7cc8c([nH]7)CCNC8=O)ccn6)c5)CC4)CC3)cc21` (stereo not drawn) [Example 1.11, 3-(1-Methyl-6-(4-(2-(4-(3-(4-(4-oxo-4,5,6,7-tetrahydro-1H-pyrrolo[3,2-c]pyridin-2-yl)pyridin-2-yl)phenyl)piperazin-1-yl)ethyl)piperazin-1-yl)-1H-indazol-3-yl)piperidine-2,6-dione], the concentration for half-maximal inhibition (IC50) in experiment [1] is below 0.15 µM. At MK2, the DC50 was in the range of 0.101 to 0.5 µM.

Consider `O=C1CCC(c2ccc(N3CCN(CC[C@H]4CC[C@H](NC(=O)c5ccc(-c6cc(-c7cc8c([nH]7)CCNC8=O)ccn6)c(F)c5)CC4)CC3)cc2)C(=O)N1` (stereo partly drawn) [Example 1.10, N-(trans-4-(2-(4-(4-(2,6-Dioxopiperidin-3-yl)phenyl)piperazin-1-yl)ethyl)cyclohexyl)-3-fluoro-4-(4-(4-oxo-4,5,6,7-tetrahydro-1H-pyrrolo[3,2-c]pyridin-2-yl)pyridin-2-yl)benzamide], for which, in experiment [1], the IC50 lay in the range of 0.501 to 1 µM. Also, the DC50 at MK2 was 0.01 to 0.1 µM.
